# Source: patent US12187713B2, “Immunomodulators, compositions and methods thereof” (Betta Pharmaceuticals Co., Ltd, priority 2019, dated 2025)
# Target: PD-1/PD-L1 (Homo sapiens (Human), UniProt Q9NZQ7)
# Experiment: PD-1/PD-L1 Binding Assay (Alphascreen)
# Conditions: numeric values
# In short: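 PD-1/PD-L1 binding detected by anti-6×His acceptor and streptavidin donor beads after 120 min in the dark at 25 °C. Beforehand, the two proteins were incubated 15 min at 25 °C with inhibitor at 0.015–300 nM (1% DMSO). IC50 comes from a log concentration–response curve.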
# Chain of PD-1/PD-L1 (Q9NZQ7 19-238): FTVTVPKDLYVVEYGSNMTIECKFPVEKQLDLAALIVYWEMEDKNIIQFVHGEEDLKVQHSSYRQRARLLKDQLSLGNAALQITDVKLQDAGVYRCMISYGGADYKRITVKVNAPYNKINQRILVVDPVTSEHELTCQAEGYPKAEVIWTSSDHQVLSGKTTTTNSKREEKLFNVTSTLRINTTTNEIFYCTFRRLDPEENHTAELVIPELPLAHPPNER
row,SMILES,IC50
1,"Cc1c(-c2cnc(CN3CCCC3)nc2)cccc1-c1cccc(-c2nc3cc(CN4CCC[C@H]4C(=O)O)c(OC(F)F)cc3o2)c1C [Example 281, ((6-(difluoromethoxy)-2-(2,2′-dimethyl-3′-(2-(pyrrolidin-1-ylmethyl)pyrimidin-5-yl)-[1,1′-biphenyl]-3-yl)benzo[d]oxazol-5-yl)methyl)-L-proline]",1.3 nM
2,"Cc1c(-c2ccc3c(c2)CNC3)cccc1-c1cccc(-c2nc3cc(CN4CCC[C@H]4C(=O)O)c(OC(F)F)cc3o2)c1C [Example 289, ((6-(difluoromethoxy)-2-(3′-(isoindolin-5-yl)-2,2′-dimethyl-[1,1′-biphenyl]-3-yl)benzo[d]oxazol-5-yl)methyl)-L-proline]",0.66 nM
3,Cc1c(-c2nc3cc(CN4CCCC4)c(F)c(F)c3[nH]2)cccc1-c1cccc(-c2nc3cc(CN4CCC[C@H]4C(=O)O)c(OC(F)F)cc3o2)c1C [Example 296],12 nM

# The next lines start with the values.
row,IC50,SMILES
1,26 nM,Cc1c(-c2nc3cc(CN4CCCC4)c(F)cc3[nH]2)cccc1-c1cccc(-c2nc3cc(CN4CCC[C@H]4C(=O)O)c(OC(F)F)cc3o2)c1C [Example 297]
2,0.29 nM,"Cc1c(-c2nc3cc(CN4CCC[C@H]4C(=O)O)c(OC(F)F)cc3o2)cccc1-c1cccc(NC(=O)c2ccc(CNCCO)cn2)c1Cl [Example 302, ((2-(2′-chloro-3′-(5-(((2-hydroxyethyl)amino)methyl)picolinamido)-2-methyl-[1,1′-biphenyl]-3-yl)-6-(difluoromethoxy)benzo[d]oxazol-5-yl)methyl)-L-proline]"
3,1.6 nM,"Cc1c(NC(=O)c2cn3c(n2)CNCC3)cccc1-c1cccc(-c2nc3cc(CN4CCC[C@H]4C(=O)O)c(OC(F)F)cc3o2)c1C [Example 303, ((6-(difluoromethoxy)-2-(2,2′-dimethyl-3′-(5,6,7,8-tetrahydroimidazo[1,2-a]pyrazine-2-carboxamido)-[1,1′-biphenyl]-3-yl)benzo[d]oxazol-5-yl)methyl)-L-proline]"
4,0.87 nM,"Cc1c(-c2nc3ccc(CN4CCCC4)cn3n2)cccc1-c1cccc(-c2nc3cc(CN4CCC[C@H]4C(=O)O)c(OC(F)F)cc3o2)c1C [Example 305, ((6-(difluoromethoxy)-2-(2,2′-dimethyl-3′-(6-(pyrrolidin-1-ylmethyl)-[1,2,4]triazolo[1,5-a]pyridin-2-yl)-[1,1′-biphenyl]-3-yl)benzo[d]oxazol-5-yl)methyl)-L-proline]"
5,1.5 nM,"Cc1c(-c2nc3cc(CN4CCC[C@H]4C(=O)O)c(OC(F)F)cc3o2)cccc1-c1cccc(N2CCC(N3CCCC3)CC2)c1C [Example 306, ((6-(difluoromethoxy)-2-(2,2′-dimethyl-3′-(4-(pyrrolidin-1-yl)piperidin-1-yl)-[1,1′-biphenyl]-3-yl)benzo[d]oxazol-5-yl)methyl)-L-proline]"

# Same assay, conditions: range symbols
row,SMILES,IC50
1,"COc1nc(-c2cccc(-c3cccc(-c4nc5cc(CN6CCC[C@H]6C(=O)O)c(OC(F)F)cc5o4)c3C)c2C)ccc1CN1CC(C)(C)C1 [Example 271, ((6-(difluoromethoxy)-2-(3′-(5-((3,3-dimethylazetidin-1-yl)methyl)-6-methoxypyridin-2-yl)-2,2′-dimethyl-[1,1′-biphenyl]-3-yl)benzo[d]oxazol-5-yl)methyl)-L-proline]",0.1 to 5 nM
2,"COc1nc(-c2cccc(-c3cccc(-c4nc5cc(CN6CCC[C@@H]6C(=O)O)c(OC(F)F)cc5o4)c3C)c2C)ccc1CN1CC[C@H](C)C1 [Example 273, ((6-(difluoromethoxy)-2-(3′-(6-methoxy-5-(((S)-3-methylpyrrolidin-1-yl)methyl)pyridin-2-yl)-2,2′-dimethyl-[1,1′-biphenyl]-3-yl)benzo[d]oxazol-5-yl)methyl)-D-proline]",5 to 50 nM
3,"C=Cc1cc(-c2cccc(-c3cccc(-c4nc5cc(CN6CCC[C@H]6C(=O)O)c(OC(F)F)cc5o4)c3C)c2C)ncc1CN1CCCC1 [Example 274, ((6-(difluoromethoxy)-2-(2,2′-dimethyl-3′-(5-(pyrrolidin-1-ylmethyl)-4-vinylpyridin-2-yl)-[1,1′-biphenyl]-3-yl)benzo[d]oxazol-5-yl)methyl)-L-proline]",0.1 to 5 nM
4,"COc1nc(-c2cccc(-c3cccc(-c4nc5cc(CN6CCC[C@H]6C(=O)O)c(OC(F)F)cc5o4)c3C)c2C)ccc1CN1CCC(C(F)F)C1 (stereo partly drawn) [Example 275, ((6-(difluoromethoxy)-2-(3′-(5-((3-(difluoromethyl)pyrrolidin-1-yl)methyl)-6-methoxypyridin-2-yl)-2,2′-dimethyl-[1,1′-biphenyl]-3-yl)benzo[d]oxazol-5-yl)methyl)-L-proline]",5 to 50 nM
5,"COc1nc(-c2cccc(-c3cccc(-c4nc5cc(CN6CCC[C@H]6C(=O)O)c(OC(F)F)cc5o4)c3C)c2C)ccc1CN1CCC[C@@H]1C [Example 277, ((6-(difluoromethoxy)-2-(3′-(6-methoxy-5-(((S)-2-methylpyrrolidin-1-yl)methyl)pyridin-2-yl)-2,2′-dimethyl-[1,1′-biphenyl]-3-yl)benzo[d]oxazol-5-yl)methyl)-L-proline]",0.1 to 5 nM
6,"COc1nc(-c2cccc(-c3cccc(-c4nc5cc(CN6CCC[C@H]6C(=O)O)c(OC(F)F)cc5o4)c3C)c2C)ccc1CN1C2CCC1CC2 [Example 278, ((2-(3′-(5-(((1s,4s)-7-azabicyclo[2.2.1]heptan-7-yl)methyl)-6-methoxypyridin-2-yl)-2,2′-dimethyl-[1,1′-biphenyl]-3-yl)-6-(difluoromethoxy)benzo[d]oxazol-5-yl)methyl)-L-proline]",0.1 to 5 nM
7,"COc1nc(-c2cccc(-c3cccc(-c4nc5cc(CN6CCC[C@H]6C(=O)O)c(OC(F)F)cc5o4)c3C)c2C)ccc1CN1CCC[C@H]1C [Example 279, ((6-(difluoromethoxy)-2-(3′-(6-methoxy-5-(((R)-2-methylpyrrolidin-1-yl)methyl)pyridin-2-yl)-2,2′-dimethyl-[1,1′-biphenyl]-3-yl)benzo[d]oxazol-5-yl)methyl)-L-proline]",0.1 to 5 nM
8,"Cc1c(-c2cnc(N3CCN(C)CC3)nc2)cccc1-c1cccc(-c2nc3cc(CN4CCC[C@H]4C(=O)O)c(OC(F)F)cc3o2)c1C [Example 282, ((6-(difluoromethoxy)-2-(2,2′-dimethyl-3′-(2-(4-methylpiperazin-1-yl)pyrimidin-5-yl)-[1,1′-biphenyl]-3-yl)benzo[d]oxazol-5-yl)methyl)-L-proline]",5 to 50 nM
9,"Cc1c(-c2cnc(CN3CCCC3)cn2)cccc1-c1cccc(-c2nc3cc(CN4CCC[C@H]4C(=O)O)c(OC(F)F)cc3o2)c1C [Example 284, ((6-(difluoromethoxy)-2-(2,2′-dimethyl-3′-(5-(pyrrolidin-1-ylmethyl)pyrazin-2-yl)-[1,1′-biphenyl]-3-yl)benzo[d]oxazol-5-yl)methyl)-L-proline]",5 to 50 nM
10,"COc1nc(-c2cccc(-c3cccc(-c4nc5cc(CN6CCC[C@H]6C(=O)O)c(OC(F)F)cc5o4)c3C)c2Cl)cnc1CNCC1CCC(=O)N1 (stereo partly drawn) [Example 287, ((2-(2′-chloro-3′-(6-methoxy-5-((((5-oxopyrrolidin-2-yl)methyl)amino)methyl)pyrazin-2-yl)-2-methyl-[1,1′-biphenyl]-3-yl)-6-(difluoromethoxy)benzo[d]oxazol-5-yl)methyl)-L-proline]",0.1 to 5 nM
11,"Cc1c(-c2ccc3c(c2)CN(CCC(=O)O)C3)cccc1-c1cccc(-c2nc3cc(CN4CCC[C@H]4C(=O)O)c(OC(F)F)cc3o2)c1C [Example 290, ((2-(3′-(2-(2-carboxyethyl)isoindolin-5-yl)-2,2′-dimethyl-[1,1′-biphenyl]-3-yl)-6-(difluoromethoxy)benzo[d]oxazol-5-yl)methyl)-L-proline]",0.1 to 5 nM
12,"Cc1c(-c2ccc3c(c2)CN(CC(=O)O)C3)cccc1-c1cccc(-c2nc3cc(CN4CCC[C@H]4C(=O)O)c(OC(F)F)cc3o2)c1C [Example 291, ((2-(3′-(2-(carboxymethyl)isoindolin-5-yl)-2,2′-dimethyl-[1,1′-biphenyl]-3-yl)-6-(difluoromethoxy)benzo[d]oxazol-5-yl)methyl)-L-proline]",0.1 to 5 nM
13,"Cc1c(-c2ccc3c(c2)CN(C(C)C(=O)O)C3)cccc1-c1cccc(-c2nc3cc(CN4CCC[C@H]4C(=O)O)c(OC(F)F)cc3o2)c1C (stereo partly drawn) [Example 292, ((2-(3′-(2-(1-carboxyethyl)isoindolin-5-yl)-2,2′-dimethyl-[1,1′-biphenyl]-3-yl)-6-(difluoromethoxy)benzo[d]oxazol-5-yl)methyl)-L-proline]",5 to 50 nM
14,"Cc1c(-c2nc3cc(CN4CCCC4)cc(C#N)c3[nH]2)cccc1-c1cccc(-c2nc3cc(CN4CCC[C@H]4C(=O)O)c(OC(F)F)cc3o2)c1C [Example 295, ((2-(3′-(7-cyano-5-(pyrrolidin-1-ylmethyl)-1H-benzo[d]imidazol-2-yl)-2,2′-dimethyl-[1,1′-biphenyl]-3-yl)-6-(difluoromethoxy)benzo[d]oxazol-5-yl)methyl)-L-proline]",5 to 50 nM

# Further lines, results first:
row,IC50,SMILES
1,5 to 50 nM,"Cc1c(-c2nc3cc(CN4CCC[C@H]4C(=O)O)c(OC(F)F)cc3o2)cccc1-c1cccc(-c2nc3cc(CN4CCCC4)c(F)c(F)c3n2C)c1C [Example 298, ((2-(3′-(6,7-difluoro-1-methyl-5-(pyrrolidin-1-ylmethyl)-1H-benzo[d]imidazol-2-yl)-2,2′-dimethyl-[1,1′-biphenyl]-3-yl)-6-(difluoromethoxy)benzo[d]oxazol-5-yl)methyl)-L-proline]"
2,> 50 nM,"Cc1c(-c2nc3cc(CN4CCC[C@H]4C(=O)O)c(OC(F)F)cc3o2)cccc1-c1cccc(-c2nc3c(F)c(F)c(CN4CCCC4)cc3n2CC(F)(F)F)c1C [Example 300, ((2-(3′-(4,5-difluoro-6-(pyrrolidin-1-ylmethyl)-1-(2,2,2-trifluoroethyl)-1H-benzo[d]imidazol-2-yl)-2,2′-dimethyl-[1,1′-biphenyl]-3-yl)-6-(difluoromethoxy)benzo[d]oxazol-5-yl)methyl)-L-proline]"
3,5 to 50 nM,"Cc1c(-c2nc3cc(CN4CCCC4)cc(C(F)(F)F)c3[nH]2)cccc1-c1cccc(-c2nc3cc(CN4CCC[C@H]4C(=O)O)c(OC(F)F)cc3o2)c1C [Example 301, ((6-(difluoromethoxy)-2-(2,2′-dimethyl-3′-(5-(pyrrolidin-1-ylmethyl)-7-(trifluoromethyl)-1H-benzo[d]imidazol-2-yl)-[1,1′-biphenyl]-3-yl)benzo[d]oxazol-5-yl)methyl)-L-proline]"
